# Laboratory results: patent EP4763837A1, “PHOTOCHROMIC COMPOUND, CURABLE COMPOSITION, OPTICAL ARTICLE, LENS, AND EYEGLASSES” (TOKUYAMA CORPORATION, priority 2023, dated 2025)
# Values joined by “and” are separate entries in the source; they are usually repeats but may differ in a detail not shown here. Identical values can stand only once.
# Columns and labels:
# Format in all cases: physicochemical
# [1] = Photochromic property of binder sheet (photochromic layer made by binder method); settings: for Residual ratio: A96/A0 x 100 after 96 hours accelerated degradation, xenon weather meter X25; for Color developing density at 23°C: absorbance difference after 240 seconds irradiation at the maximum absorption wavelength of the same line
# Protocol: The resulting photochromic laminates were evaluated by the below-mentioned methods. • (1) Photochromic property • [1] Maximum absorption wavelength (λmax): This is the maximum absorption wavelength after color development determined by a spectrophotometer manufactured by Otsuka Electronics Co., Ltd. (instantaneous multichannel photo detector MCPD3000) and was used as an index of a color tone upon color development. • [2] Color developing density at 23°C (A23): This is a difference between an absorbance {ε(240)} after irradiation with light at 23°C for 240 seconds and an absorbance ε(0) when not irradiated with light at the maximum absorption wavelength and was used as an index of a color developing density. The higher this value is, the better a photochromic property is. • [3] Color fading half-life at 23°C [τ1/2 (sec).)]: This is a period of time taken by an absorbance at the maximum absorption wavelength of a sample to decrease to 1/2 of {ε(240)-ε(0)} when irradiation is stopped after irradiation with light at 23°C for 240 seconds, and was used as an index of a color fading rate. The shorter this period of time is, the faster the color fading rate is. • [4] Residual ratio (A96/A0 x 100): The resulting photochromic plastic lens was subjected to accelerated degradation for 96 hours using a xenon weather meter X25 manufactured by Suga Test Instruments Co., Ltd. Color developing densities were then evaluated before and after a test, and a color developing density before the test (A0) and a color developing density after the test (A96) were measured. A ratio (A96/A0) was determined as a residual ratio and was used as an index of color development durability. The higher the residual ratio is, the more durable the color development is.
# A binder sheet was produced as follows. The binder sheet was made by laminating a first optical sheet, a first adhesive layer, a photochromic layer, a second adhesive layer, and a second optical sheet in this order. A polycarbonate sheet with a thickness of 400 µm was used as the first optical sheet and the second optical sheet.
# A 2 L four-necked flask equipped with a stirring blade, a condense tube, a thermometer, and a nitrogen gas inlet tube was charged with 315 parts by mass of polycarbonate diol with a number average molecular weight of 1000, 100 parts by mass of isophorone diisocyanate, and 72 parts by mass of toluene and reacted under a nitrogen atmosphere at 100°C for 7 hours. Thus, a urethane prepolymer with a terminal isocyanate group was synthesized. After the reaction of the above-mentioned urethane prepolymer was completed, the resulting reaction liquid was cooled to about 0°C and dissolved in 205 parts by mass of tertiary-butyl alcohol and 382 parts by mass of diethyl ketone, and then a temperature of the resulting liquid was kept at 0°C. Next, a mixed solution of 21.3 parts by mass of bis-(4-aminocyclohexyl)methane serving as a chain extender and 20 parts by mass of diethyl ketone was added dropwise thereto within 30 minutes and reacted at 0°C for 1 hour. Then, 8.1 parts by mass of 1,2,2,6,6-pentamethyl-4-aminopiperidine was added dropwise thereto and reacted at 0°C for 1 hour to obtain a solution of a terminal non-reactive urethane urea resin in diethylketone.
# One hundred parts by mass of the resulting solution of a terminal non-reactive urethane urea resin, 6.3 parts by mass of Example 1 (a photochromic compound represented by Formula (1-7), an isomer mixture of 4,4'-methylenebis(cyclohexylisocyanate) (polyisocyanate compound)), 0.4 parts by mass of ethylenebis(oxyethylene) bis[3-(5-tert-butyl-4-hydroxy-m-tolyl) propionate] serving as an antioxidant, and 0.06 parts by mass of L-7001 manufactured by DuPont Toray Specialty Materials K.K. serving as a surfactant were added and stirred and mixed at room temperature to obtain a composition for forming a photochromic layer. […]
# [2] = Photochromic property of photochromic cured product made by kneading method; settings: for Residual ratio: A96/A0 x 100 after 96 hours accelerated degradation, xenon weather meter X25; for Color developing density at 23°C: absorbance difference after 240 seconds irradiation at the maximum absorption wavelength of the same line
# [3] = Solubility of photochromic compound in polymerizable compounds; set-up: key: 1: No haze is seen when checked under transmission of light, and the sample is completely dissolved.; 2: A very thin haze is seen to the extent that it can be seen under transmission of light.; 3: A thin haze that can be seen under transmission of light is seen.; 4: A haze can be seen even without transmission of light; settings: 35 µmol/g in radical polymerizable compound composition of Example 21, 65 to 70°C; for Dissolution for 15 min / Dissolution for 30 min / Dissolution for 45 min: stirring and ultrasonic irradiation; for Dissolution for 1 hour: head reads 60 min in Tables 8 to 14
# In short: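 Photochromic compound was added to the radical polymerizable portion of a curable composition and dissolved at 65 to 70°C under stirring and intermittent ultrasonication. The sample was inspected visually by transmitted light every 15 minutes up to 1 h and scored 1 (fully dissolved, no haze) to 4 (haze visible without transmitted light). Solubility was ranked by the time taken to reach score 1.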
Compound,Residual ratio [1],Residual ratio [2],Color developing density at 23°C [2],Dissolution for 15 min [3],Dissolution for 30 min [3],Dissolution for 45 min [3],Dissolution for 1 hour [3],Color developing density at 23°C [1]
"COc1ccc(C2(c3ccc(OC)cc3)C=Cc3c4c(c5cc(N6CCOCC6)c(OC)cc5c3O2)-c2ccccc2C4(C)C)cc1 [Formula (A), reference compound]",63% and 65%,54% and 56%,1.68 - and 0.85 -,4,3,3,3,
"CCC1(OC)c2ccccc2-c2c1c1c(c3cc(OC)c(N4CCOCC4)cc23)OC(c2ccc(OC)cc2)(c2ccc(OC)cc2)C=C1 (stereo not shown) [Formula (B), reference compound]",50% and 51%,40% and 42%,1.32 - and 0.69 -,4,3,1,1,1.32 - and 0.71 -
CCC1(C)c2ccccc2-c2c1c1c(c3cc(OC)c(N(C)c4ccccc4)cc23)OC(c2ccc(OC)cc2)(c2ccc(OC)cc2)C=C1 (stereo not shown) [Formula (9-1)],93%,79%,1.20 -,4,2,2,1,1.19 -

# Results, then the compound that gave them:
Residual ratio [1],Residual ratio [2],Color developing density at 23°C [2],Dissolution for 15 min [3],Dissolution for 30 min [3],Dissolution for 45 min [3],Dissolution for 1 hour [3],Color developing density at 23°C [1],Compound
75%,63% and 64%,,4,2,1,1,,CCCC1(CC)c2ccccc2-c2c1c1c(c3cc(OC)c(N4CCOCC4)cc23)OC(c2ccc(OC)cc2)(c2ccc(OC)cc2)C=C1 (stereo not shown) [Formula (14-1)]
71% and 74%,60% and 61%,,3,2,1,1,,CCCCCCC1(CC)c2ccccc2-c2c1c1c(c3cc(OC)c(N4CCOCC4)cc23)OC(c2ccc(OC)cc2)(c2ccc(OC)cc2)C=C1 (stereo not shown) [Formula (18-1)]
62% and 66%,52% and 55%,,2,1,1,1,,CCCCCCCCCCCC1(C)c2ccccc2-c2c1c1c(c3cc(OC)c(N4CCOCC4)cc23)OC(c2ccc(OC)cc2)(c2ccc(OC)cc2)C=C1 (stereo not shown) [Formula (19-1)]
75% and 72%,,,4,2,1,1,,CCCCC1(CCC)c2ccccc2-c2c1c1c(c3cc(OC)c(N4CCOCC4)cc23)OC(c2ccc(OC)cc2)(c2ccc(OC)cc2)C=C1 (stereo not shown) [Formula (6-2)]
